Test results from PubChem BioAssay AID2060600 (Molecular Pharmacology Branch, DTP, NCI, 2025).

System: 996289-038-R-J1-PDC complex spheroid viability
Test: Anticancer human tumor 996289-038-R-J1-PDC patient-derived colon adenocarcinoma cell line growth inhibition [CLK]
Conditions: for IC50: curve of first compound; for viability, T/C: stronger effect = lower value
Procedure, shortened: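 Multi-cell-type spheroids combined patient-derived tumor cells with HUVEC endothelial cells and human mesenchymal stem cells. Paired agents were dosed in half-log steps down from about clinical Cmax, or from 10 microM where Cmax was unknown.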
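Further: spheroids exposed to the agents for 7 days before readout.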

Work on `O=c1[nH]cc(F)c(=O)[nH]1` + CN1CCN(c2cc(C(=O)Nc3cc4cc(-c5cnn(C)c5)ccc4cn3)ccn2)CC1 yielded an IC50 (second compound 0.0316 µM) greater than 10000 nM, an IC50 (second compound 0.1 µM) greater than 10000 nM and an IC50 (second compound 0.316 µM) of 4880 nM. The IC50 (second compound 1 µM) was less than 31.6 nM, the IC50 (second compound 3.16 µM) was less than 31.6 nM and the IC50 (second compound 10 µM) was less than 31.6 nM. It also gave a viability, T/C (second compound 0.0316 µM, first compound 0.0316 µM) of 100%, a viability, T/C (second compound 0.0316 µM, first compound 0.1 µM) of 91.3% and a viability, T/C (second compound 0.0316 µM, first compound 0.316 µM) of 76.4%. For the same molecule, the viability, T/C (second compound 0.0316 µM, first compound 1 µM) was 74.4%, the viability, T/C (second compound 0.0316 µM, first compound 3.16 µM) was 74.2% and the viability, T/C (second compound 0.0316 µM, first compound 10 µM) was 71%. The viability, T/C (second compound 0.1 µM, first compound 0.0316 µM) was 101%, the viability, T/C (second compound 0.1 µM, first compound 0.1 µM) was 94.4% and the viability, T/C (second compound 0.1 µM, first compound 0.316 µM) was 74.2%. It also gave a viability, T/C (second compound 0.1 µM, first compound 1 µM) of 65.5%, a viability, T/C (second compound 0.1 µM, first compound 3.16 µM) of 60.8% and a viability, T/C (second compound 0.1 µM, first compound 10 µM) of 58.4%. The viability, T/C (second compound 0.316 µM, first compound 0.0316 µM) was 77.1%, the viability, T/C (second compound 0.316 µM, first compound 0.1 µM) was 68.1% and the viability, T/C (second compound 0.316 µM, first compound 0.316 µM) was 56.8%. It also gave a viability, T/C (second compound 0.316 µM, first compound 1 µM) of 56.7%, a viability, T/C (second compound 0.316 µM, first compound 3.16 µM) of 51.7% and a viability, T/C (second compound 0.316 µM, first compound 10 µM) of 47.3%. For the same molecule, the viability, T/C (second compound 1 µM, first compound 0.0316 µM) was 4.52%, the viability, T/C (second compound 1 µM, first compound 0.1 µM) was 5.71% and the viability, T/C (second compound 1 µM, first compound 0.316 µM) was 5.87%. It also gave a viability, T/C (second compound 1 µM, first compound 1 µM) of 6.18%, a viability, T/C (second compound 1 µM, first compound 3.16 µM) of 6.47% and a viability, T/C (second compound 1 µM, first compound 10 µM) of 7.26%. The viability, T/C (second compound 3.16 µM, first compound 0.0316 µM) was 1.22%, the viability, T/C (second compound 3.16 µM, first compound 0.1 µM) was 0.94% and the viability, T/C (second compound 3.16 µM, first compound 0.316 µM) was 0.86%. For the same molecule, the viability, T/C (second compound 3.16 µM, first compound 1 µM) was 1.6%, the viability, T/C (second compound 3.16 µM, first compound 3.16 µM) was 0.83% and the viability, T/C (second compound 3.16 µM, first compound 10 µM) was 0.72%. For the same molecule, the viability, T/C (second compound 10 µM, first compound 0.0316 µM) was 0.56%, the viability, T/C (second compound 10 µM, first compound 0.1 µM) was 0.79% and the viability, T/C (second compound 10 µM, first compound 0.316 µM) was 0.98%. It also gave a viability, T/C (second compound 10 µM, first compound 1 µM) of 1.55%, a viability, T/C (second compound 10 µM, first compound 3.16 µM) of 0.45% and a viability, T/C (second compound 10 µM, first compound 10 µM) of 0.41%.
Molecule `C=CC(=O)Nc1cc(Nc2nccc(-c3cn(C)c4ccccc34)n2)c(OC)cc1N(C)CCN(C)C` + CNC(=O)c1ccc(Nc2nc(OC3CCCC3)c3c(-c4ccc5nc(C)oc5c4)c[nH]c3n2)c(OC)c1 has an IC50 (second compound 0.0316 µM) greater than 300 nM, an IC50 (second compound 0.1 µM) greater than 300 nM and an IC50 (second compound 0.316 µM) greater than 300 nM. It also gave an IC50 (second compound 1 µM) of 137 nM, an IC50 (second compound 3.16 µM) of 91.8 nM and an IC50 (second compound 10 µM) of 56.9 nM. It also gave a viability, T/C (second compound 0.0316 µM, first compound 0.000949 µM) of 118%, a viability, T/C (second compound 0.0316 µM, first compound 0.003 µM) of 123% and a viability, T/C (second compound 0.0316 µM, first compound 0.00949 µM) of 112%. The viability, T/C (second compound 0.0316 µM, first compound 0.03 µM) was 117%, the viability, T/C (second compound 0.0316 µM, first compound 0.0949 µM) was 113% and the viability, T/C (second compound 0.0316 µM, first compound 0.3 µM) was 85.8%. It also gave a viability, T/C (second compound 0.1 µM, first compound 0.000949 µM) of 109%, a viability, T/C (second compound 0.1 µM, first compound 0.003 µM) of 124% and a viability, T/C (second compound 0.1 µM, first compound 0.00949 µM) of 106%. The viability, T/C (second compound 0.1 µM, first compound 0.03 µM) was 109%, the viability, T/C (second compound 0.1 µM, first compound 0.0949 µM) was 110% and the viability, T/C (second compound 0.1 µM, first compound 0.3 µM) was 77.4%. It also gave a viability, T/C (second compound 0.316 µM, first compound 0.000949 µM) of 74%, a viability, T/C (second compound 0.316 µM, first compound 0.003 µM) of 74.3% and a viability, T/C (second compound 0.316 µM, first compound 0.00949 µM) of 72.7%. For the same molecule, the viability, T/C (second compound 0.316 µM, first compound 0.03 µM) was 69.4%, the viability, T/C (second compound 0.316 µM, first compound 0.0949 µM) was 68.8% and the viability, T/C (second compound 0.316 µM, first compound 0.3 µM) was 52.5%. It also gave a viability, T/C (second compound 1 µM, first compound 0.000949 µM) of 69.7%, a viability, T/C (second compound 1 µM, first compound 0.003 µM) of 67.5% and a viability, T/C (second compound 1 µM, first compound 0.00949 µM) of 62%. It also gave a viability, T/C (second compound 1 µM, first compound 0.03 µM) of 61.6%, a viability, T/C (second compound 1 µM, first compound 0.0949 µM) of 53.2% and a viability, T/C (second compound 1 µM, first compound 0.3 µM) of 43.1%. It also gave a viability, T/C (second compound 3.16 µM, first compound 0.000949 µM) of 64.2%, a viability, T/C (second compound 3.16 µM, first compound 0.003 µM) of 60.8% and a viability, T/C (second compound 3.16 µM, first compound 0.00949 µM) of 56.5%. The viability, T/C (second compound 3.16 µM, first compound 0.03 µM) was 53%, the viability, T/C (second compound 3.16 µM, first compound 0.0949 µM) was 53.1% and the viability, T/C (second compound 3.16 µM, first compound 0.3 µM) was 43.8%. For the same molecule, the viability, T/C (second compound 10 µM, first compound 0.000949 µM) was 60.9%, the viability, T/C (second compound 10 µM, first compound 0.003 µM) was 55.9% and the viability, T/C (second compound 10 µM, first compound 0.00949 µM) was 55%. For the same molecule, the viability, T/C (second compound 10 µM, first compound 0.03 µM) was 54.7%, the viability, T/C (second compound 10 µM, first compound 0.0949 µM) was 47.4% and the viability, T/C (second compound 10 µM, first compound 0.3 µM) was 38.2%.
